Laboratory results reported in PMC8457121, “From Kinase Inhibitors to Multitarget Ligands as Powerful Drug Leads for Alzheimer's Disease using Protein‐Templated Synthesis” (Angewandte Chemie (International Ed. in English), 2021).

Tested on: SK-APP cells
Assay: Aβ40 and Aβ42 levels in SK-APP cells (sandwich ELISA)
Assay type: cell-based, human
Conditions: 10 μM, 48 h treatment
Description: page 35: enzyme concentration (1 U/mL). Inhibitor screening at 10 μM. The mixture was incubated for 60 min at 25 °C under dark conditions and then stopped with 2.5 M sodium acetate. Fluorescence was measured with a FLUOstar Optima (BMG Labtechnologies GmbH, Offenburg, Germany) microplate reader at 545 nm excitation and 585 nm emission. Evaluation of BACE Inhibitors Kinetics. To evaluate the mechanism of BACE1 inhibition of the compounds, substrate-dependent kinetic experiments were performed. BACE activity were measured at five different concentrations substrate (1000 -62,5 μM) in the absence or presence of the select inhibitor at two different concentrations. The results are presented as double reciprocal Lineweaver-Burk plots (1/V vs 1/[S]) Figure S1. Cell culture and treatments. SK-N-MC cells stably expressing the human isoform APP695 (SK-APP cell line […]1) were generated by transfection of SK-N-MC cells with a pCDNA3-APP expression vector, and kindly provided by Dr. MJ Bullido. These cells were cultured in DMEM (Thermo Fisher) medium supplemented with 10% FBS (Thermo Fisher), 1 mM glutamine (Sigma- Aldrich), and 100 unit/ml penicillin (Lonza) and […] streptomycin (Lonza). Cell cultures were maintained in a 5% CO2, humidified atmosphere at 37 °C. SH-SY5Y cells were obtained from the American Type Culture Collection and grown in DMEM media (Gibco), supplemented with 10% foetal bovine serum, and 1% penicillin/streptomycin (Invitrogen). The cells were grown at 37 °C in a humidified 5% CO2 atmosphere. For the treatments, all the compounds were dissolved in dimethyl sulfoxide (DMSO, from Sigma) at an initial stock concentration of 10 mM. […] working solutions were obtained from the dilution of the stock solutions in DMEM media (DMSO control solutions were prepared similarly to the compounds). Okadaic acid (OA, Sigma-Aldrich) was dissolved in DMSO at an initial stock concentration of 60 μM and a 250X working solution was obtained from the dilution of the stock solution in DMEM. All the compounds (250x solutions) were added directly into the wells at the indicated final concentrations for 1 hour before the treatment with OA at a final concentration of 30 nM. DMSO was added at the appropriate concentration to the 34 page 36: control-untreated cells. The cells were maintained in the presence of the OA and the different compounds for 24h. Measurement of cell viability. Cell viability assays were carried out using a 3- […] (Sigma-Aldrich) in 96-well cell culture plates. All cells were then incubated with a 0.5 mg/ml MTT solution (Sigma-Aldrich) at 37 °C for 4 h and then with cell lysis […] The absorbance values were determined at 590 nm. Cell viability was expressed as a percent of OD of control cells, the value of which was defined as 100%. Cell viability in SH-SY5Y were carried out following the same procedure but seeding the cells in 24 well multiplates. Absorbance was measured using a Varioskan Flash multiplate reader (Thermo Scientific) at test 550 nm and reference 664 nm wave-lengths. Compound concentration for SK-APP line was 10 μM and for the SH-SY5Y was 1 and 5 μM. Immunoassays. Levels of Aβ40 and Aβ42 were quantified by sandwich ELISAs (Wako, Osaka, Japan) from cellular lysates and conditioned media collected. CNS penetration: in vitro PAMPA-BBB test. Prediction of the brain penetration was evaluated using a parallel artificial membrane permeability assay (PAMPA).1 Nine quality control compounds (mentioned below) of know BBB permeability were included in each experiment to validate the analysis set.2 Commercial drugs […] dissolved in 250 μL of DMSO (Sigma-Aldrich). 25 μL of these compound stock solutions were taken and 225 μL of DMSO and 4750 μL of PBS pH 7.4 buffer were added to reach 5% of DMSO concentration in the experiment and a final […] Compounds to be determined their ability to pass the brain barrier (0.5-1 mg) were dissolved in 250 μL of DMSO and 4750 μL of PBS pH 7.4 was carefully added to afford a final […]

O=C(Nc1nc2ccccc2s1)c1ccc(Cn2cc(COc3ccc(C(=O)Nc4nc5ccccc5s4)cc3)nn2)cc1 [compound 8]
reducing: Aβ40 levels in cellular lysates | Aβ40 levels in extracellular fluid | Aβ42 levels in extracellular fluid
